Measured values as given in the NIST ThermoML archive (doi:10.1016/j.tca.2009.07.008).
Numbers after ± are expanded uncertainties.

Test: mn = molality of the nth substance listed, in mol/kg
Conditions: 303.15 K, 101 kPa, Liquid, Capillary tube (Ostwald / Ubbelohde) method

CCCCN [1-butanamine] + C1CCOC1
Conditions | viscosity [mPa·s]
m1 = 0.1429 | 0.329 ± 0.0047
m1 = 0.2304 | 0.3312 ± 0.0047
m1 = 0.5054 | 0.336 ± 0.0047
m1 = 0.588 | 0.3398 ± 0.0047
m1 = 0.7153 | 0.3442 ± 0.0048
m1 = 0.8391 | 0.3481 ± 0.0048
m1 = 1.009 | 0.351 ± 0.0048
m1 = 1.27 | 0.3549 ± 0.0048
m1 = 1.407 | 0.3619 ± 0.0048

CCCCN [1-butanamine] + C1COCCO1
Conditions | viscosity [mPa·s]
m1 = 0.1085 | 1.06 ± 0.0078
m1 = 0.2365 | 1.046 ± 0.0077
m1 = 0.3679 | 1.032 ± 0.0077
m1 = 0.4745 | 1.02 ± 0.0076
m1 = 0.5834 | 1.007 ± 0.0076
m1 = 0.7574 | 0.9893 ± 0.0075
m1 = 0.8872 | 0.9764 ± 0.0074
m1 = 1.004 | 0.9652 ± 0.0074
m1 = 1.116 | 0.9543 ± 0.0073

CCCCNCCCC [dibutylamine] + C1CCOC1
Conditions | viscosity [mPa·s]
m1 = 0.1402 | 0.3333 ± 0.0047
m1 = 0.2993 | 0.3417 ± 0.0048
m1 = 0.4313 | 0.3498 ± 0.0048
m1 = 0.5953 | 0.3567 ± 0.0048
m1 = 0.7592 | 0.3648 ± 0.0048
m1 = 0.8997 | 0.3735 ± 0.0049
m1 = 1.027 | 0.3806 ± 0.0049
m1 = 1.201 | 0.3912 ± 0.0049
m1 = 1.381 | 0.4015 ± 0.005

CCCCNCCCC [dibutylamine] + C1COCCO1
Conditions | viscosity [mPa·s]
m1 = 0.1225 | 1.065 ± 0.0078
m1 = 0.2369 | 1.053 ± 0.0078
m1 = 0.3608 | 1.04 ± 0.0077
m1 = 0.4533 | 1.031 ± 0.0077
m1 = 0.594 | 1.019 ± 0.0076
m1 = 0.7122 | 1.006 ± 0.0076
m1 = 0.8855 | 0.9937 ± 0.0075
m1 = 0.9669 | 0.9865 ± 0.0075
m1 = 1.138 | 0.9766 ± 0.0075

CCCNCCC [dipropylamine] + C1CCOC1
Conditions | viscosity [mPa·s]
m1 = 0.1794 | 0.332 ± 0.0047
m1 = 0.285 | 0.335 ± 0.0047
m1 = 0.4155 | 0.3388 ± 0.0047
m1 = 0.5881 | 0.3437 ± 0.0048
m1 = 0.7109 | 0.3491 ± 0.0048
m1 = 0.9435 | 0.3545 ± 0.0048
m1 = 1.051 | 0.3574 ± 0.0048
m1 = 1.198 | 0.364 ± 0.0048
m1 = 1.357 | 0.3717 ± 0.0049

CCCNCCC [dipropylamine] + C1COCCO1
Conditions | viscosity [mPa·s]
m1 = 0.0998 | 1.062 ± 0.0078
m1 = 0.2282 | 1.05 ± 0.0077
m1 = 0.341 | 1.039 ± 0.0077
m1 = 0.4787 | 1.027 ± 0.0077
m1 = 0.6261 | 1.012 ± 0.0076
m1 = 0.7266 | 1.001 ± 0.0075
m1 = 0.8461 | 0.9902 ± 0.0075
m1 = 0.9821 | 0.9801 ± 0.0075
m1 = 1.149 | 0.9661 ± 0.0074

CCCN [propan-1-amine] + C1CCOC1
Conditions | viscosity [mPa·s]
m1 = 0.1123 | 0.328 ± 0.0047
m1 = 0.2842 | 0.3315 ± 0.0047
m1 = 0.3986 | 0.3329 ± 0.0047
m1 = 0.5609 | 0.3353 ± 0.0047
m1 = 0.7487 | 0.3395 ± 0.0047
m1 = 0.8957 | 0.3412 ± 0.0048
m1 = 1.002 | 0.3436 ± 0.0048
m1 = 1.139 | 0.3453 ± 0.0048
m1 = 1.377 | 0.3513 ± 0.0048

CCCN [propan-1-amine] + C1COCCO1
Conditions | viscosity [mPa·s]
m1 = 0.1086 | 1.06 ± 0.0078
m1 = 0.2456 | 1.043 ± 0.0077
m1 = 0.3295 | 1.028 ± 0.0076
m1 = 0.478 | 1.014 ± 0.0076
m1 = 0.5767 | 0.9987 ± 0.0075
m1 = 0.7164 | 0.9852 ± 0.0074
m1 = 0.8321 | 0.9693 ± 0.0074
m1 = 1.028 | 0.9504 ± 0.0073
m1 = 1.116 | 0.9395 ± 0.0072

CCCCN(CCCC)CCCC [tributylamine] + C1CCOC1
Conditions | viscosity [mPa·s]
m1 = 0.1637 | 0.3385 ± 0.0047
m1 = 0.3071 | 0.3517 ± 0.0048
m1 = 0.4107 | 0.3637 ± 0.0048
m1 = 0.5836 | 0.3764 ± 0.0049
m1 = 0.7131 | 0.3894 ± 0.0049
m1 = 0.9025 | 0.4036 ± 0.005
m1 = 1.125 | 0.4181 ± 0.005
m1 = 1.204 | 0.4323 ± 0.0051
m1 = 1.31 | 0.4444 ± 0.0051
